The values below come from US20070099854A1, “Use of pentadienoic acid derivatives for the treatment of hyperuricemia” (priority 2003, published 2007).

Data set [1] concerns plasma uric acid concentration. The data set is described as follows: Hypouricemic effect of compound A in healthy male volunteers, single oral administration. It is filed as in vivo, human (healthy male volunteers). Particulars: at 24 hours. How it is done: Hypouricemic effect of compound A in healthy male volunteers
Forty-eight healthy male volunteers received orally either EMD or a placebo as a single administration in the morning. Six doses were administered 50 mg, 100 mg, 200 mg, 400 mg, 800 mg and 1200 mg once daily. In each group of dose, 6 subjects received compound A and 2 subjects received a placebo. Plasma uric acid concentrations were assessed in all dose groups.
The drop of plasma uric acid concentration was around 45% for the lowest tested dose (50 mg) and the maximum effect was observed from the 800 mg dose (80%).
FIG. 1: Mean plasma uric acid concentration in each group of dose before and 24 hours after drug intake (single dose) in subjects receiving compound A.

Compound `CCOC(=O)/C=C(C)/C=C/C1=Cc2ccccc2OC1` [Example 3a] yielded a melting point of 110 to 112 °C.

As for `CC(/C=C/C1=Cc2ccccc2OC1)=C\C(=O)O` [Example 3b], the melting point lay in the range of 226 to 228 °C.

Turning to `CC(/C=C/C1=Cc2ccccc2OC1(C)C)=C\C(=O)O` [Example 4b], the melting point is 164 to 166 °C.

The compound `CC(=C/C(=O)O)/C=C/C1=Cc2ccccc2OC1(C)C` [Example 5b] yielded a melting point of 176 °C.

`CC(/C=C/C1=C(c2ccccc2)c2ccccc2OC1)=C\C(=O)O` [Example 7b]: the melting point fell in the range of 258 to 260 °C.

For `CC1=C(/C=C/C(C)=C/C(=O)O)COc2ccccc21` [Example 11b], the melting point was in the range of 216 to 218 °C.

In turn, `CC(=C/C(=O)O)/C=C/C1=Cc2ccccc2OC1` [Example 12b] came in with a melting point of 224 to 226 °C.

The compound `CC(/C=C/C1=Cc2ccccc2OC1c1ccccc1)=C\C(=O)O` (centres unmarked) [Example 14b] had a melting point of 200 to 202 °C.

For the compound `COc1ccc2c(c1)C(/C=C/C(C)=C/C(=O)O)=CC(C)(C)CO2` [compound A, (2E,4E)-5-(3,3-dimethyl-7-methoxy-2,3-dihydrobenzoxepin-5-yl)-3-methylpenta-2,4-dienoic acid], in data set [1] (50 mg (lowest tested dose)), the “drop of plasma uric acid concentration” value is reported as “around 45%”. Also, the “change in plasma uric acid concentration” value in data set [1] (all dose groups 50-1200 mg) is on record as “dose dependant decrease”. In data set [1] (from the 800 mg dose), the “drop of plasma uric acid concentration (maximum effect)” value amounted to 80%.

Usually melting point stands for the temperature of the solid-liquid transition.
